The values below come from patent publication US7842702B2, “Treatment for irritable bowel syndrome” (Astellas Pharma Inc., priority 2007, dated 2010).

One data set relates to IBS patients. As to conditions: cited from earlier work.
Data set [1] has as its system abdominal contractions caused by colorectal distention in the acetic acid-induced IBS model. Description: Viscerosensory response to colorectal distention (number of abdominal contractions) in the acetic acid-induced IBS model. Format: in vivo, rat. The settings on record: for inhibitory effects on abdominal contractions, concomitant use with alosetron: alosetron 0.1 mg/kg, po + compound 1 0.01 mg/kg, po or cromolyn 20 mg/kg, ip, FIG. 8. As for the experimental part:
(§1) Preparation of an IBS model was carried out by the following method with reference to the method of Jun-Ho La et al. (World J. Gastroenterol., 2003, vol. 9 (12), pp. 2791-2795). Male Sprague-Dawley (SD) rats or Wistar rats after an overnight fast were used. Colitis was induced by intracolonic instillation of 1 ml 4% acetic acid at 8 cm proximal to the anus for 30 seconds under light ether anesthesia. Then, 1 ml physiological saline was instilled to dilute the acetic acid and flush the colon twice. Rats were recovered from colitis for 6 days, and used for experiments shown in Examples 2 and 3 at 7 days after induction of colitis as “IBS rat (4% acetic acid)”. In addition, rats received physiological saline instead of acetic acid was used as a “control group (saline)”.
Male Wistar rats under no fasting at 7 days after 4% acetic acid treatment or physiological saline treatment were used. Under light ether anesthesia, a latex balloon of 6 cm in length was inserted intra-anally until the end of the balloon was 2 cm inside the rectum. The catheter connecting from the balloon was fixed to the tail base with a tape and connected to a pressure transducer via a three-way cock. After restoration from the ether anesthesia in a cage (23.5×19×19 cm), nociceptive behavior (the number of abdominal contractions) to colorectal distention (15, 30, 45, 60 mmHg) applied stepwise at 5 minute intervals was measured. […] In this connection, each compound was administered 30 minutes before the colorectal distention.

For data set [2], the system named is spontaneous defecation in mice. As to conditions: mouse, in vivo. The method, then: Doxantrazole was used by dissolving it in 5% (w/v) NaHCO3 aqueous solution, and compound 1 was used by dissolving it in 0.5% methylcellulose aqueous solutions Male ddY mice under no fasting were reared in individual cages from the evening of the previous day of the experiment. On the day of the experiment, each compound was administered intraperitoneally (doxantrazole) or orally (compound 1), and the number of stools spontaneously excreted for 2 hours after the initiation of the experiment was measured.

Data set [3] deals with restraint stress-induced defecation in the acetic acid-induced IBS model. The data set can be described thus: Restraint stress-induced defecation in the acetic acid-induced IBS model. The settings on record: for ED50: Rattus norvegicus, male SD rats, 4% acetic acid IBS model, 30 min before restraint, stools for 1 hour; for ED50 / inhibitory effects on restraint stress-induced defecation (dose dependence): compound 1 po, cromolyn ip; for inhibitory effects on restraint stress-induced defecation (dose dependence): FIGS. 2 and 3. Format: in vivo, rat. As for the experimental part:
as §1
Cromolyn was used by dissolving it in physiological saline, and compound 1 and ketotifen were used by dissolving them in 0.5% methylcellulose aqueous solution, respectively. Each compound was intraperitoneally administered (cromolyn) or orally administered (compound 1 and ketotifen) to male SD rats under no fasting at 7 days after the 4% acetic acid treatment or physiological saline treatment. The animals were put into restraint stress cages (product name: KN-468 (B), mfd. by Natsume Seisakusho) 30 minutes thereafter and the number and weight of the stools excreted for 1 hour were measured (“stress”). On the other hand, the normal group was put into individual cage and the number and weight of the stools excreted for 1 hour were measured in the same manner (“normal”). Results of the restraint stress-induced defecation in the agent-nonadministered group are shown in FIG. 1, and the results of agent-administered groups in FIGS. 2 to 4 respectively.

Another data set has as its system rat abdominal mast cells. The data set can be described thus: Release of histamine by an antigen-antibody reaction using rat abdominal mast cells (degranulation). As to conditions: Mast cell, fluorescent method with o-phthalaldehyde, read-out: Degranulation (mast cells) (IC50 μg/ml). Format: cell-based. The method, then: In addition, the inhibitory effects of compound 1 and cromolyn on the release of histamine by an antigen-antibody reaction using rat abdominal mast cells were measured by a fluorescent method which is a modified method of Shore et al. (The Journal of Pharmacology and Experimental Therapeutics, 1959, vol. 127, pp. 182-186) with o-phthalaldehyde.

≈ marks a conversion by molar mass, not a printed value.

With `Cc1[nH]cnc1CN1CCc2c(c3ccccc3n2C)C1=O` [alosetron], the “improvement rate for abdominal symptoms and diarrhea” value in the data set with IBS patients is recorded as “about 50%”. The “inhibitory effects on abdominal contractions, alosetron alone” value in data set [1] (0.1 mg/kg, po) was “maximal inhibitory effects”.

In the case of `Cn1cc(C(=O)[C@@H]2CCc3nc[nH]c3C2)c2ccccc21` [ramosetron], the “inhibitory effects on abdominal contractions, ramosetron alone” value in data set [1] (0.01 mg/kg, po) was “maximal inhibitory effects”.

Consider `O=C1c2ccccc2S(=O)(=O)c2cc(-c3nnn[nH]3)ccc21` [doxantrazole], for which the “effect on the spontaneous defecation in mice” value in data set [2] is “inhibitory tendency”.

With `CN1CCC(=C2c3ccccc3CC(=O)c3sccc32)CC1` [ketotifen], the “inhibitory effects on restraint stress-induced defecation at the maximum” value in data set [3] (po, maximum effect, FIG. 4) is “about 30%”.

The ED50 is the dose at which the effect has come halfway, by size or by number of responders. Read a high ED50 as a need for a large dose. In the case of `O=C(O)c1cc(=O)c2c(OCC(O)COc3cccc4oc(C(=O)O)cc(=O)c34)cccc2o1` [Cromolyn, sodium cromoglycate], in data set [3] (100 mg/kg, ip), the “inhibition of restraint stress-induced defecation at 100 mg/kg, ip” value is given as “inhibited it almost completely”. In data set [3], the ED50 amounted to 19.9 mg/kg and the “inhibitory effects on restraint stress-induced defecation (dose dependence)” value is “in a dose-dependent manner”. Further, the IC50 with rat abdominal mast cells stood at 2.2 µg/mL. In addition, the “inhibitory effects on abdominal contractions, concomitant use with alosetron” value in data set [1] was “reinforcement of the effect was not found”.

With `O=C(Nc1nnn[nH]1)c1cc(Oc2ccccc2)c2ccccn2c1=O` [Compound 1, N-(1H-tetrazol-5-yl)-1-phenoxy-4H-quinolizin-4-one-3-carboxamide], in data set [3] (1 mg/kg, po), the “inhibition of restraint stress-induced defecation at 1 mg/kg, po” value is recorded as “inhibited it almost completely”. Besides, in data set [3], the ED50 turned out to be 0.0071 mg/kg and the “inhibitory effects on restraint stress-induced defecation (dose dependence)” value is “in a dose-dependent manner”. Besides, the IC50 in the data set with rat abdominal mast cells worked out at 0.0074 µg/mL (≈ 0.0212 µM). Also, the “inhibitory effects on abdominal contractions, concomitant use with alosetron” value in data set [1] is given as “additively”. The “inhibitory effects on abdominal contractions, concomitant use with ramosetron” value in data set [1] (compound 1 0.01 mg/kg, po + ramosetron 0.01 mg/kg, po, FIG. 7) is “additively”. Also, the “inhibitory effects on the abdominal contractions caused by the colorectal distention” value in data set [1] (male Wistar rats, 0.01 and 1 mg/kg, po, 30 min before distention, FIG. 6) was “dose-dependent inhibitory effects”. For the same molecule, the “effect on the spontaneous defecation in mice” value in data set [2] was “no effect”.
